Read-outs that look alike come from different tables or passages of the source.

Experiment [1] addresses T1, M2TMWT (Influenza A virus, UniProt P0DOF5). The settings on record: cited from earlier work.
Experiment [2] relates to A/California/07/2009 (H1N1) M2: N31. As to conditions: cited from earlier work.
For experiment [3], the target named is T1, M2TMWT. The class given is binding.

T1 sequence (P0DOF5 22-46 limits assumed): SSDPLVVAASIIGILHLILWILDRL

As to `NC12CC3CC(CC(C3)C1)C2` [Compound 1, Amantadine, reference compound], on M2TMWT [1], the TΔS was 1.11 ± 0.521 kcal/mol, the ΔG was -7.77 ± 0.141 kcal/mol and the ΔH is -6.661 ± 0.5 kcal/mol. The “% block after 3 min” value in experiment [2] is on record as 14 ± 2 (100 μM; 26) %.
With `NC1C2CC3CC(C2)CC1C3` (stereo not drawn) [Compound 2], on M2TMWT [1], the TΔS is 0.93 ± 0.44 kcal/mol, the ΔG was -7.959 ± 0.129 kcal/mol and the ΔH was -7.029 ± 0.421 kcal/mol. Besides, in experiment [2], the “% block after 3 min” value is recorded as 13 ± 3 (100 μM; 2) % and the “% block after 30 min” value is 16 (100 μM; 1) %.
Consider `CC1(N)C2CC3CC(C2)CC1C3` (stereo not drawn) [Compound 3], for which, at M2TMWT [1], the TΔS was 1.51 ± 0.289 kcal/mol, the ΔG is -8.31 ± 0.129 kcal/mol and the ΔH was -6.79 ± 0.261 kcal/mol.
For `CCC1(N)C2CC3CC(C2)CC1C3` (stereo not drawn) [Compound 4], at M2TMWT [1], the TΔS was 1.38 ± 0.251 kcal/mol, the ΔG is -8.521 ± 0.129 kcal/mol and the ΔH is -7.139 ± 0.21 kcal/mol.
Turning to `CCCC1(N)C2CC3CC(C2)CC1C3` (stereo not drawn) [Compound 5], at M2TMWT [1], the TΔS was 0.932 ± 0.347 kcal/mol, the ΔG was -8.707 ± 0.165 kcal/mol and the ΔH was -7.796 ± 0.308 kcal/mol. In experiment [2], the “% block after 3 min” value is recorded as 0 ± 5 (100 μM; 2) % and the “% block after 30 min” value is on record as 9 ± 10 (100 μM, 3) %.
In the case of `C1CNC2(C1)C1CC3CC(C1)CC2C3` (stereo not drawn) [Compound 6], at M2TMWT [1], the TΔS is 3.97 ± 0.614 kcal/mol, the ΔG is -9.109 ± 0.44 kcal/mol and the ΔH was -5.136 ± 0.421 kcal/mol.
On to `CN1CCCC12C1CC3CC(C1)CC2C3` (stereo not drawn) [Compound 7], for which, at M2TMWT [1], the TΔS is 4.46 ± 0.361 kcal/mol, the ΔG is -8.279 ± 0.229 kcal/mol and the ΔH was -3.819 ± 0.28 kcal/mol.
As for `CC12CC3CC(CC(C3)C13CCCN3)C2` (stereo not drawn) [Compound 8, 1′-Methylspiro[pyrrolidine-2,2′-adamantane]], at M2TMWT [1], the TΔS is 3 ± 0.37 kcal/mol, the ΔG is -8.081 ± 0.201 kcal/mol and the ΔH is -5.079 ± 0.311 kcal/mol.
As for `NC1(C23CC4CC(CC(C4)C2)C3)CCCC1` [Compound 9], the ΔG on M2TMWT [3] was -6.637 ± 0.189 kcal/mol.

These data come from paper PMC9308172 (Journal of medicinal chemistry, 2017).
